Assay results published in patent US8802597B2, “Herbicidal pyrimidines” (E I du Pont de Nemours and Company, priority 2003, dated 2014).

Assays:
Format in all cases: in vivo
[1] = system: tropical spiderwort (Commelina benghalensis); test: Test G pre/postemergence
Description: (§1) Seeds or nutlets of plant species selected from bermudagrass (Cynodon dactylon), Surinam grass (Brachiaria decumbens), large crabgrass (Digitaria sanguinalis), green foxtail (Setaria viridis), goosegrass (Eleusine indica), johnsongrass (Sorghum halepense), kochia (Kochia scoparia), pitted morningglory (Ipomoea lacunosa), purple nutsedge (Cyperus rotundus), common ragweed (Ambrosia elatior), black mustard (Brassica nigra), guineagrass (Panicum maximum), dallisgrass (Paspalum dilatatum), barnyardgrass (Echinochloa crus-galli), southern sandbur (Cenchrus echinatus), common sowthistle (Sonchus oleraceous), prickly sida (Sida spinosa), Italian ryegrass (Lolium multiflorum), common purslane (Portulaca oleracea), broadleaf signalgrass (Brachiaria platyphylla), common groundsel (Senecio vulgaris), common chickweed (Stellaria media), tropical spiderwort (Commelina benghalensis), annual bluegrass (Poa annua), downy bromegrass (Bromus tectorum), itchgrass (Rottboellia cochinchinensis), quackgrass (Elytrigia repens), Canada horseweed (Conyza canadensis), field bindweed (Convolvulus arvensis), spanishneedles (Bidens bipinnata), common mallow (Malva sylvestris), and Russian thistle (Salsola kali) were planted and treated preemergence with test chemicals formulated in a non-phytotoxic solvent mixture which included a surfactant.
(§2) At the same time, plants selected from these weed species were treated with postemergence applications of some of the test chemicals formulated in the same manner. Plants ranged in height from 2 to 18 cm (1- to 4-leaf stage) for postemergence treatments. Treated plants and controls were maintained in a greenhouse for 12 to 21 days, after which time all species were compared to controls and visually evaluated.
(§3) Plant response ratings, summarized in Table G, are based on a scale of 0 to 100 where 0 is no effect and 100 is complete control. A dash (-) response means no test result.

[2] = system: field bindweed (Convolvulus arvensis); test: Test G pre/postemergence
Description: as §1, §2, §3

[3] = system: broadleaf signalgrass (Brachiaria platyphylla); test: Test G pre/postemergence
Description: as §1, §2, §3

[4] = system: barnyardgrass (Echinochloa crus-galli); test: Test G pre/postemergence
Description: as §1, §2, §3

[5] = system: common ragweed (Ambrosia elatior); test: Test G pre/postemergence
Description: as §1, §2, §3

[6] = system: large crabgrass (Digitaria sanguinalis); test: Test G pre/postemergence
Description: as §1, §2, §3

[7] = system: downy bromegrass (Bromus tectorum); test: Test G pre/postemergence
Description: as §1, §2, §3

[8] = system: goosegrass (Eleusine indica); test: Test G pre/postemergence
Description: as §1, §2, §3

[9] = system: prickly sida (Sida spinosa); test: Test G pre/postemergence
Description: as §1, §2, §3

[10] = system: guineagrass (Panicum maximum); test: Test G pre/postemergence
Description: as §1, §2, §3

wild oat (Avena fatua) = test: Test C postemergence; details: for Plant response rating, Oat, Wild: scale 0 to 100
Method in brief: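 Test compounds, formulated in a non-phytotoxic solvent mix with surfactant, were applied to freshly planted seeds and, at the same time, to emerged plants at 1- to 4-leaf stage (2 to 18 cm). After 12 to 14 days in the greenhouse, response was scored visually versus controls, 0 = no effect, 100 = complete control.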

[11] = Postemergence, 250 g ai/ha, scale 0 to 100
[12] = Postemergence, 16 g ai/ha, scale 0 to 100
[13] = Postemergence, 31 g ai/ha, scale 0 to 100
[14] = Postemergence, 62 g ai/ha, scale 0 to 100
[15] = Postemergence, 125 g ai/ha, scale 0 to 100
[16] = Preemergence, 16 g ai/ha, scale 0-100
[17] = Preemergence, 31 g ai/ha, scale 0-100
[18] = Preemergence, 62 g ai/ha, scale 0-100
[19] = Preemergence, 125 g ai/ha, scale 0-100
[20] = Preemergence, 250 g ai/ha, scale 0-100
[21] = Avena fatua, post-emergence, 125 g ai/ha, scale 0 to 100 (0 no effect, 100 complete control), read-out: Oat, Wild plant response rating
[22] = 125 g ai/ha, scale 0 to 100 (0 no effect, 100 complete control)

For Nc1nc(C2CC2)nc(C(=O)OCc2ccccc2)c1Br [Compound 22, phenylmethyl 6-amino-5-bromo-2-cyclopropyl-4-pyrimidinecarboxylate], the “Plant response rating, Spiderwort” value [1, 11] was 98, the “Plant response rating, Spiderwort” value [1, 12] was 15 and the “Plant response rating, Spiderwort” value [1, 13] was 40. For the same molecule, the “Plant response rating, Spiderwort” value [1, 14] was 85, the “Plant response rating, Spiderwort” value [1, 15] was 95 and the “Plant response rating, Spiderwort” value [1, 16] was 0. The “Plant response rating, Spiderwort” value [1, 17] was 50, the “Plant response rating, Spiderwort” value [1, 18] was 95 and the “Plant response rating, Spiderwort” value [1, 19] was 100. The “Plant response rating, Spiderwort” value [1, 20] was 100, the “Plant response rating, Bindweed, Field” value [2, 11] was 100 and the “Plant response rating, Bindweed, Field” value [2, 12] was 85. For the same molecule, the “Plant response rating, Bindweed, Field” value [2, 13] was 100, the “Plant response rating, Bindweed, Field” value [2, 14] was 100 and the “Plant response rating, Bindweed, Field” value [2, 15] was 100. The “Plant response rating, Bindweed, Field” value [2, 16] was 65, the “Plant response rating, Bindweed, Field” value [2, 17] was 75 and the “Plant response rating, Bindweed, Field” value [2, 18] was 90. The “Plant response rating, Bindweed, Field” value [2, 19] was 90, the “Plant response rating, Bindweed, Field” value [2, 20] was 100 and the “Plant response rating, Signalgrass” value [3, 11] was 85. For the same molecule, the “Plant response rating, Signalgrass” value [3, 12] was 5, the “Plant response rating, Signalgrass” value [3, 13] was 15 and the “Plant response rating, Signalgrass” value [3, 14] was 25. The “Plant response rating, Signalgrass” value [3, 15] was 50, the “Plant response rating, Signalgrass” value [3, 16] was 0 and the “Plant response rating, Signalgrass” value [3, 17] was 0. For the same molecule, the “Plant response rating, Signalgrass” value [3, 18] was 0, the “Plant response rating, Signalgrass” value [3, 19] was 10 and the “Plant response rating, Signalgrass” value [3, 20] was 80. The “Plant response rating, Barnyardgrass” value [4, 11] was 85, the “Plant response rating, Barnyardgrass” value [4, 12] was 0 and the “Plant response rating, Barnyardgrass” value [4, 13] was 0. The “Plant response rating, Barnyardgrass” value [4, 14] was 15, the “Plant response rating, Barnyardgrass” value [4, 15] was 25 and the “Plant response rating, Barnyardgrass” value [4, 16] was 10. For the same molecule, the “Plant response rating, Barnyardgrass” value [4, 17] was 20, the “Plant response rating, Barnyardgrass” value [4, 18] was 30 and the “Plant response rating, Barnyardgrass” value [4, 19] was 70. The “Plant response rating, Barnyardgrass” value [4, 20] was 80, the “Plant response rating, Ragweed” value [5, 11] was 100 and the “Plant response rating, Ragweed” value [5, 12] was 65. The “Plant response rating, Ragweed” value [5, 13] was 85, the “Plant response rating, Ragweed” value [5, 14] was 98 and the “Plant response rating, Ragweed” value [5, 15] was 98. For the same molecule, the “Plant response rating, Ragweed” value [5, 16] was 65, the “Plant response rating, Ragweed” value [5, 17] was 75 and the “Plant response rating, Ragweed” value [5, 18] was 90. For the same molecule, the “Plant response rating, Ragweed” value [5, 19] was 95, the “Plant response rating, Ragweed” value [5, 20] was 100 and the “Plant response rating, Crabgrass, Large” value [6, 11] was 85. The “Plant response rating, Crabgrass, Large” value [6, 12] was 15, the “Plant response rating, Crabgrass, Large” value [6, 13] was 35 and the “Plant response rating, Crabgrass, Large” value [6, 14] was 50. The “Plant response rating, Crabgrass, Large” value [6, 15] was 85, the “Plant response rating, Crabgrass, Large” value [6, 16] was 0 and the “Plant response rating, Crabgrass, Large” value [6, 17] was 40. For the same molecule, the “Plant response rating, Crabgrass, Large” value [6, 18] was 40, the “Plant response rating, Crabgrass, Large” value [6, 19] was 80 and the “Plant response rating, Crabgrass, Large” value [6, 20] was 80. The “Plant response rating, Bromegrass, Downy” value [7, 11] was 95, the “Plant response rating, Bromegrass, Downy” value [7, 12] was 15 and the “Plant response rating, Bromegrass, Downy” value [7, 13] was 65. The “Plant response rating, Bromegrass, Downy” value [7, 14] was 85, the “Plant response rating, Bromegrass, Downy” value [7, 15] was 95 and the “Plant response rating, Bromegrass, Downy” value [7, 16] was 0. For the same molecule, the “Plant response rating, Bromegrass, Downy” value [7, 17] was 0, the “Plant response rating, Bromegrass, Downy” value [7, 18] was 0 and the “Plant response rating, Bromegrass, Downy” value [7, 19] was 20. The “Plant response rating, Bromegrass, Downy” value [7, 20] was 75, the “Plant response rating, Goosegrass” value [8, 11] was 50 and the “Plant response rating, Goosegrass” value [8, 12] was 5. For the same molecule, the “Plant response rating, Goosegrass” value [8, 13] was 15, the “Plant response rating, Goosegrass” value [8, 14] was 25 and the “Plant response rating, Goosegrass” value [8, 15] was 35. The “Plant response rating, Goosegrass” value [8, 16] was 0, the “Plant response rating, Goosegrass” value [8, 17] was 0 and the “Plant response rating, Goosegrass” value [8, 18] was 0. The “Plant response rating, Goosegrass” value [8, 19] was 0, the “Plant response rating, Goosegrass” value [8, 20] was 0 and the “Plant response rating, Prickly Sida” value [9, 11] was 95. For the same molecule, the “Plant response rating, Prickly Sida” value [9, 12] was 75, the “Plant response rating, Prickly Sida” value [9, 13] was 85 and the “Plant response rating, Prickly Sida” value [9, 14] was 90. For the same molecule, the “Plant response rating, Prickly Sida” value [9, 15] was 95, the “Plant response rating, Prickly Sida” value [9, 16] was 50 and the “Plant response rating, Prickly Sida” value [9, 17] was 50. The “Plant response rating, Prickly Sida” value [9, 18] was 65, the “Plant response rating, Prickly Sida” value [9, 19] was 80 and the “Plant response rating, Prickly Sida” value [9, 20] was 95. For the same molecule, the “Plant response rating, Guineagrass” value [10, 11] was 100, the “Plant response rating, Guineagrass” value [10, 12] was 5 and the “Plant response rating, Guineagrass” value [10, 13] was 55. For the same molecule, the “Plant response rating, Guineagrass” value [10, 14] was 65, the “Plant response rating, Guineagrass” value [10, 15] was 95 and the “Plant response rating, Guineagrass” value [10, 16] was 0. For the same molecule, the “Plant response rating, Guineagrass” value [10, 17] was 35, the “Plant response rating, Guineagrass” value [10, 18] was 75 and the “Plant response rating, Guineagrass” value [10, 19] was 90. The “Plant response rating, Guineagrass” value [10, 20] was 95.

In the case of Nc1nc(C2CC2)nc(C(=O)OCc2ccccc2)c1Cl [Compound 78, phenylmethyl 6-amino-5-chloro-2-cyclopropyl-4-pyrimidinecarboxylate], the “Plant response rating (scale of 0 to 100), Oat, Wild” value (wild oat (Avena fatua); 31 g ai/ha) is reported as 5, the “Plant response rating (scale of 0 to 100), Oat, Wild” value (wild oat (Avena fatua); 62 g ai/ha) is reported as 10 and the “Plant response rating, Oat, Wild” value (wild oat (Avena fatua); 250 g ai/ha) is reported as 60. For the same molecule, the pest or weed control at 125 g/ha (wild oat (Avena fatua); [21]) was 60%.

With COC(=O)c1nc(C2CC2)nc(N=CN(C)C)c1Br [Compound 19] the “Plant response rating (scale of 0 to 100), Oat, Wild” value (wild oat (Avena fatua); 16 g ai/ha) was 40, the “Plant response rating (scale of 0 to 100), Oat, Wild” value (wild oat (Avena fatua); 31 g ai/ha) was 40 and the “Oat, Wild plant response rating” value (wild oat (Avena fatua); 62 g ai/ha, scale 0 to 100 (0 no effect, 100 complete control)) was 60. For the same molecule, the “Oat, Wild plant response rating” value (wild oat (Avena fatua); [22]) was 65.

For CNc1nc(C2CC2)nc(C(=O)OC)c1Cl [Compound 79], the “Plant response rating (scale of 0 to 100), Oat, Wild” value (wild oat (Avena fatua); 16 g ai/ha) was 0, the “Plant response rating (scale of 0 to 100), Oat, Wild” value (wild oat (Avena fatua); 31 g ai/ha) was 25 and the “Plant response rating (scale of 0 to 100), Oat, Wild” value (wild oat (Avena fatua); 62 g ai/ha) was 25. It also gave a pest or weed control at 125 g/ha (wild oat (Avena fatua); [21]) of 45%.

COC(=O)c1nc(C2CC2)nc(NO)c1Br [Compound 35] was tested, and the “Plant response rating, Oat, Wild” value (wild oat (Avena fatua); 250 g ai/ha) was 45, the “Plant response rating, Oat, Wild” value (wild oat (Avena fatua); 500 g ai/ha) was 55 and the pest or weed control at 62 g/ha (wild oat (Avena fatua); Avena fatua, post-emergence, 62 g ai/ha, scale 0 to 100 (0 no effect, 100 complete control), read-out: Oat, Wild plant response rating) was 30%. For the same molecule, the pest or weed control at 125 g/ha (wild oat (Avena fatua); [21]) was 45%.

With Nc1nc(-c2ccc(Br)cc2)nc(C(=O)O)c1Br [Compound 136] the “Plant response rating (scale of 0 to 100), Oat, Wild” value (wild oat (Avena fatua); 16 g ai/ha) was 40, the “Plant response rating (scale of 0 to 100), Oat, Wild” value (wild oat (Avena fatua); 31 g ai/ha) was 45 and the “Plant response rating (scale of 0 to 100), Oat, Wild” value (wild oat (Avena fatua); 62 g ai/ha) was 55. For the same molecule, the “Oat, Wild plant response rating” value (wild oat (Avena fatua); [22]) was 60.
